Reference: patent US8133847B2, “Pyrido[2,3-B]pyrazine derivatives useful as herbicidal compounds” (Syngenta Limited, priority 2006, dated 2012)

Columns and labels:
Experiment in all cases: Example B1 herbicidal action, post-emergence, 96-cell seed trays, climatic chamber
Assay type in all cases: in vivo
Stellaria media (STEME) = conditions: Application post-emergence, 1000 mg/l spray equivalent to 1000 g/ha, evaluated after 9 days (100=total damage to plant, 0=no damage to plant)
Outline: (§1)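 Plants at 8–9 days post-sowing (23/17 °C, 13 h light, 50–60% humidity) sprayed post-emergence with 1000 mg/l active ingredient in 10% DMSO, equivalent to 1000 g/ha. Grown on at 24/19 °C, watered twice daily; damage scored after 9 days (0 = none, 100 = total).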

[1] = test system: Amaranthus retroflexus (AMARE); conditions: Application post-emergence, 1000 mg/l spray equivalent to 1000 g/ha, evaluated after 9 days
Outline: as §1

Solanum nigrum (SOLNI) = conditions: Application post-emergence, 1000 mg/l spray equivalent to 1000 g/ha, evaluated after 9 days (100=total damage to plant, 0=no damage to plant)
Outline: as §1

[2] = test system: Nasturtium officinale (NAAOF); design: scale not given here; conditions: Application post-emergence, 1000 mg/l spray equivalent to 1000 g/ha, evaluated after 9 days (100=total damage to plant, 0=no damage to plant)
Outline: as §1

Structure (SMILES) | damage to plant, Stellaria media (STEME) (Stellaria media (STEME)) | damage to plant, Amaranthus retroflexus (AMARE) [1] | damage to plant, Solanum nigrum (SOLNI) (Solanum nigrum (SOLNI)) | damage to plant, Nasturtium officinale (NAAOF) [2]
CCC(=O)Oc1c(-c2c(Cl)cccc2Cl)c(=O)n(CC)c2nccnc12 [Compound C31] | 8 | 8 | 4 | 8
CCC(=O)Oc1c(-c2c(Cl)cccc2Cl)c(=O)n(C)c2nccnc12 [Compound C32] | 8 | 8 | 2 | 8
CC(=O)Oc1c(-c2c(Cl)cccc2Cl)c(=O)n(C)c2nccnc12 [Compound C33] | 6 | 3 | 6 | 7
CCC(=O)Oc1c(-c2c(Cl)cccc2Cl)c(=O)n(CCOC)c2nccnc12 [Compound C34] | 6 | 2 | 0 | 5
C/C=C/C(=O)Oc1c(-c2c(Cl)cccc2Cl)c(=O)n(C)c2nccnc12 [Compound C35] | 7 | 2 | 0 | 7
CCOC(=O)Oc1c(-c2c(Cl)cccc2Cl)c(=O)n(C)c2nccnc12 [Compound C36] | 5 | 5 | 6 | 7
Cn1c(=O)c(-c2c(Cl)cccc2Cl)c(OC(=O)C(C)(C)C)c2nccnc21 [Compound C37] | 5 | 5 | 6 | 7
CCCC(=O)Oc1c(-c2c(Cl)cccc2Cl)c(=O)n(C)c2nccnc12 [Compound C38] | 7 | 5 | 7 | 7
C=CCn1c(=O)c(-c2c(Cl)cccc2Cl)c(OC(=O)OCC)c2nccnc21 [Compound C39] | 6 | 7 | 7 | 6
CCCCn1c(=O)c(-c2c(Cl)cccc2Cl)c(OC(C)=O)c2nccnc21 [Compound C40] | 2 | 3 | 2 | 2
CCn1c(=O)c(-c2c(Cl)cccc2Cl)c(OC(=O)C(C)(C)C)c2nccnc21 [Compound C41] | 2 | 2 | 0 | 2
CC(=O)Oc1c(-c2ccc(Cl)cc2Cl)c(=O)n(C)c2nccnc12 [Compound C43] | 5 | 3 | 3 | 5
CCC(=O)Oc1c(-c2ccc(F)cc2Cl)c(=O)n(C)c2nccnc12 [Compound C44] | 6 | 8 | 2 | 4
CCn1c(=O)c(-c2cccc(Cl)c2Cl)c(OC(=O)C(C)C)c2nccnc21 [Compound C45] | 9 | 8 | 6 | 8
CC(C)Cn1c(=O)c(-c2ccccc2OC(F)(F)F)c(OC(=O)C(C)(C)C)c2nccnc21 [Compound C46] | 1 | 0 | 4 | 1
CC(C)(C)C(=O)Oc1c(-c2ccccc2OC(F)(F)F)c(=O)n(CC2CC2)c2nccnc12 [Compound C47] | 0 | 4 | 3 | 1
CC(C)Cn1c(=O)c(-c2c(F)ccc(F)c2Cl)c(OC(=O)C(C)(C)C)c2nccnc21 [Compound C48] | 1 | 0 | 1 | 0
CC(C)(C)C(=O)Oc1c(-c2c(F)ccc(F)c2Cl)c(=O)n(CC2CC2)c2nccnc12 [Compound C49] | 3 | 3 | 0 | 0
Cn1c(=O)c(-c2ccccc2Cl)c(OC(=O)C(C)(C)C)c2nccnc21 [Compound C50] | 7 | 4 | 4 | 7
Cn1c(=O)c(-c2c(F)ccc(F)c2Cl)c(OC(=O)c2ccc([N+](=O)[O-])cc2)c2nccnc21 [Compound C51] | 7 | 7 | 0 | 7
Cn1c(=O)c(-c2ccc3ccccc3c2)c(OC(=O)C(C)(C)C)c2nccnc21 [Compound C52] | 3 | 0 | 0 | 3
Cn1c(=O)c(-c2c(F)ccc(F)c2Cl)c(OC(=O)CC(C)(C)C)c2nccnc21 [Compound C53] | 5 | 7 | 3 | 7
Cn1c(=O)c(-c2c(F)ccc(F)c2F)c(OC(=O)C(C)(C)C)c2nccnc21 [Compound C55] | 4 | 4 | 0 | 0
CC(C)C(=O)c1c(-c2c(Cl)cccc2Cl)c(=O)n(C)c2nccnc12 [Compound C56] | 7 | 8 | 0 | 7
CCn1c(=O)c(-c2c(F)ccc(F)c2F)c(OC(=O)C(C)C)c2nccnc21 [Compound C57] | 7 | 5 | 2 | 6
CC(C)C(=O)Oc1c(-c2c(F)ccc(F)c2F)c(=O)n(C)c2nccnc12 [Compound C58] | 8 | 6 | 0 | 7
CCn1c(=O)c(-c2c(F)ccc(F)c2F)c(OC(=O)C(C)(C)C)c2nccnc21 [Compound C59] | 7 | 6 | 0 | 7
CC(C)C(=O)Oc1c(-c2c(F)ccc(F)c2Cl)c(=O)n(CC2CC2)c2nccnc12 [Compound C60] | 5 | 7 | 7 | 8
Cn1c(=O)c(-c2ccc(Cl)cc2Cl)c(OC(=O)C(C)(C)C)c2nccnc21 [Compound C61] | 8 | 8 | 2 | 8
CCn1c(=O)c(-c2ccc(Cl)cc2Cl)c(OC(=O)C(C)(C)C)c2nccnc21 [Compound C62] | 8 | 7 | 1 | 8
